Data taken from patent US20040072770A1, “Methods for specifically inhibiting histone deacetylase-7 and 8” (priority 2002, published 2004).

Experiments:
HDAC-6 = biological target: T1, HDAC-6 (Homo sapiens, UniProt Q9UBN7); assay: Enzyme inhibitory activity, HD6; assay type: biochemical; settings: read-out: IC50 HD 6
T1 sequence (Q9UBN7 1-1215): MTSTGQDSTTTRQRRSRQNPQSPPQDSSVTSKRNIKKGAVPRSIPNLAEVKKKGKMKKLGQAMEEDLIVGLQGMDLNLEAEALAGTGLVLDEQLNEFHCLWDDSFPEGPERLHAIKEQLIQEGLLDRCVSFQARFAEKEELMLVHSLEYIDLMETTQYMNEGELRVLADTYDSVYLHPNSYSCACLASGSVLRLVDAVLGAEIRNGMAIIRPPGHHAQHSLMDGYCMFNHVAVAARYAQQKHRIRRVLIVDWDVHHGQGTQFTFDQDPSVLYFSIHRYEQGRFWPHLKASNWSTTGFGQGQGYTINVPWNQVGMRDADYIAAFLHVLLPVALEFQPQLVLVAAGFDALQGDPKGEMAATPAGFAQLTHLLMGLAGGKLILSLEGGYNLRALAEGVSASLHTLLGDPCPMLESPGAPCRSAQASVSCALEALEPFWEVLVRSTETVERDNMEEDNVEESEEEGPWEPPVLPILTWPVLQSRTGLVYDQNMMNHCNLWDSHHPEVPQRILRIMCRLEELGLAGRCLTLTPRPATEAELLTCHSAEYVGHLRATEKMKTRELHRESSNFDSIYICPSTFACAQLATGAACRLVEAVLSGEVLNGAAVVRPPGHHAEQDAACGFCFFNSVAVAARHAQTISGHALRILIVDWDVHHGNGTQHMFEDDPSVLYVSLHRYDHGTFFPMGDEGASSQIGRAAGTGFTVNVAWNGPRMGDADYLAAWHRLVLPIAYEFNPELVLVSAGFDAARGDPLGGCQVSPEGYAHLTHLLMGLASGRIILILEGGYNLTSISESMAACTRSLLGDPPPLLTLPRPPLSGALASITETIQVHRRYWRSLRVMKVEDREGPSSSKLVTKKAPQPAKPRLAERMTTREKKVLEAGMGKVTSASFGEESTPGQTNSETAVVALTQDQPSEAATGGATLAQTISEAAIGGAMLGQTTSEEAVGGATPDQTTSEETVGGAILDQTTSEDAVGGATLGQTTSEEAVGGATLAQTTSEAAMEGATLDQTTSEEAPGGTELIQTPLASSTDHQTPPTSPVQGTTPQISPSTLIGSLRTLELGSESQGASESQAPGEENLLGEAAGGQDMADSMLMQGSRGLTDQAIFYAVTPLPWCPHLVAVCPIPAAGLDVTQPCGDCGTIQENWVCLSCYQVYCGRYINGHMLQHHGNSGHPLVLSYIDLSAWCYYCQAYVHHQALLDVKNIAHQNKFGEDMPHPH

[1] = test system: colon carcinoma cells HCT116 tumors; assay: Tumor growth in a mouse model, HCT116; assay type: in vivo; settings: intraperitoneal, BALB/c nude mice, vs vehicle-treated
Experimental: (§1) Female BALB/c nude mice are obtained from Charles River Laboratories (Charles River, N.Y.) and used at age 8-10 weeks. Human tumor cells (2×10^6, colon carcinoma cells HCT116 or SW48, lung carcinoma cells A549, pancreatic carcinoma Panc-1, ovarian carcinoma cells ES2, or prostate carcinoma cells Du145) are injected subcutaneously in the animal's flank and allowed to form solid tumors. Tumor fragments are serially passaged a minimum of three times, then approximately 30 mg tumor fragments are implanted subcutaneously through a small surgical incision under general anaesthesia. Small molecule inhibitor administration by intraperotineal or oral administration was initiated when the tumors reached a volume of 100 mm^3. For intraperotineal administration, small molecule inhibitors of HDAC-7, HDAC-8 or both, or in combination with small molecule inhibitors of HDAC-1 (20-60 mg/kg body weight/day) are dissolved in 100% DMSO and administered daily by injection. For oral administration, small molecule inhibitors of HDAC (60 mg/kg body weight) are dissolved in saline acidified with 0.2 N HCl. Tumor volumes are monitored twice weekly up to 20 days. Each experimental group contains at least 6-8 animals. Percentage inhibition is calculated using volume of tumor from vehicle-treated mice as controls. Shown in Table 4, inhibition of HDAC7 or HDAC8 in combination with HDAC1 leads to inhibition of growth of various human tumors in vivo.

[2] = test system: lung carcinoma cells A549 tumors; assay: Tumor growth in a mouse model, A549; assay type: in vivo; settings: BALB/c nude mice, vs vehicle-treated
Experimental: as §1, with “Shown in Table 4, inhibition of HDAC7 or HDAC8 in combination with HDAC1 leads to inhibition of growth of various human tumors in vivo.” left out

[3] = test system: prostate carcinoma cells Du145 tumors; assay: Tumor growth in a mouse model, Du145; assay type: in vivo; settings: (60,I): 60 mg/kg body weight/day, intraperitoneal; BALB/c nude mice; vs vehicle-treated
Experimental: as §1, with “Shown in Table 4, inhibition of HDAC7 or HDAC8 in combination with HDAC1 leads to inhibition of growth of various human tumors in vivo.” left out

[4] = test system: colon carcinoma cells SW48 tumors; assay: Tumor growth in a mouse model, SW48; assay type: in vivo; settings: (6,0,O): oral; BALB/c nude mice; vs vehicle-treated
Experimental: as §1, with “Shown in Table 4, inhibition of HDAC7 or HDAC8 in combination with HDAC1 leads to inhibition of growth of various human tumors in vivo.” left out

[5] = test system: pancreatic carcinoma Panc-1 tumors; assay: Tumor growth in a mouse model, Panc-1; assay type: in vivo; settings: BALB/c nude mice, vs vehicle-treated
Experimental: as §1, with “Shown in Table 4, inhibition of HDAC7 or HDAC8 in combination with HDAC1 leads to inhibition of growth of various human tumors in vivo.” left out

[6] = (20,I): 20 mg/kg body weight/day

IC50 (HDAC-6) | Structure (SMILES) | % of Inhibition of Tumor Growth in Vivo HCT116 [1, 6] | % of Inhibition of Tumor Growth in Vivo HCT116 ([1]; (40,I): 40 mg/kg body weight/day) | % of Inhibition of Tumor Growth in Vivo A 549 ([2]; (5,0,O): oral) | % of Inhibition of Tumor Growth in Vivo DU 145 [3] | % of Inhibition of Tumor Growth in Vivo SW 48 [4] | % of Inhibition of Tumor Growth in Vivo PANC-1 ([5]; (60,O): 60 mg/kg body weight, oral) | % of Inhibition of Tumor Growth in Vivo A 549 ([2]; (30,I): 30 mg/kg body weight/day, intraperitoneal) | % of Inhibition of Tumor Growth in Vivo PANC-1 ([5]; (3,0,I): intraperitoneal)
> 50 µM | Cc1ccc(S(=O)(=O)Nc2ccc(/C=C/C(=O)Nc3ccccc3N)cc2)cc1 [Compound 5, N-(2-Aminophenyl)-3-[4-(4-methylbenzenesulfonylamino)-phenyl]-acrylamide] | 48(20,I) % | 55(40,I) % | – | – | – | – | – | –
> 50 µM | COc1ccc(NCc2ccc(C(=O)Nc3ccccc3N)cc2)cc1OC [Compound 17, N-(2-Aminophenyl)-4-[(3,4-dimethoxyphenylamino)-methyl]-benzamide] | 77(20,I) % | – | 67(5,0,O) % | >50(60,I) % | 68(6,0,O) % | 78(60,O) % | – | –
> 50 µM | COc1ccc(-c2ccnc(NCc3ccc(C(=O)Nc4ccccc4N)cc3)n2)cc1OC [Compound 21, N-(2-Amino-phenyl)-4-{[4-(3,4-dimethoxy-phenyl)-pyrimidin-2-ylamino]-methyl}-benzamide] | – | – | – | – | – | – | >50(30,I) % | >50(3,0,I) %

Structure (SMILES) | IC50 (HDAC-6) | % of Inhibition of Tumor Growth in Vivo HCT116 [1, 6] | % of Inhibition of Tumor Growth in Vivo HCT116 ([1]; (40,I): 40 mg/kg body weight/day) | % of Inhibition of Tumor Growth in Vivo A 549 ([2]; (5,0,O): oral) | % of Inhibition of Tumor Growth in Vivo DU 145 [3] | % of Inhibition of Tumor Growth in Vivo SW 48 [4] | % of Inhibition of Tumor Growth in Vivo PANC-1 ([5]; (60,O): 60 mg/kg body weight, oral) | % of Inhibition of Tumor Growth in Vivo A 549 ([2]; (30,I): 30 mg/kg body weight/day, intraperitoneal) | % of Inhibition of Tumor Growth in Vivo PANC-1 ([5]; (3,0,I): intraperitoneal)
Nc1ccccc1NC(=O)c1ccc(CSc2nc3ccccc3[nH]2)cc1 [Compound 16, N-(2-Amino-phenyl)-4-(1H-benzimidazol-2-ylsulfanylmethyl)-benzamide] | > 50 µM | 61(20,I) % | – | – | – | – | – | – | –
